For orientation: pIC50 means the IC50 on a negative log10 scale, so that one unit is a factor of ten.

30 compounds from ChEMBL document CHEMBL3784934, “N-Alkylpyrido[1',2':1,5]pyrazolo-[4,3-d]pyrimidin-4-amines: A new series of negative allosteric modulators of mGlu1/5 with CNS exposure in rodents” (Bioorg Med Chem Lett, 2016) can be followed below.

Format in all cases: functional, cell-based
For test [1], the target named is Metabotropic glutamate receptor 1 (Rattus norvegicus, UniProt P23385). Kind of test: Negative allosteric modulation of rat mGluR1 expressed in HEK293 cells assessed as inhibition of glutamate induced calcium mobilization by calcium mobilization assay.
Sequence of Metabotropic glutamate receptor 1 (Rattus norvegicus, UniProt P23385) (P23385 whole entry): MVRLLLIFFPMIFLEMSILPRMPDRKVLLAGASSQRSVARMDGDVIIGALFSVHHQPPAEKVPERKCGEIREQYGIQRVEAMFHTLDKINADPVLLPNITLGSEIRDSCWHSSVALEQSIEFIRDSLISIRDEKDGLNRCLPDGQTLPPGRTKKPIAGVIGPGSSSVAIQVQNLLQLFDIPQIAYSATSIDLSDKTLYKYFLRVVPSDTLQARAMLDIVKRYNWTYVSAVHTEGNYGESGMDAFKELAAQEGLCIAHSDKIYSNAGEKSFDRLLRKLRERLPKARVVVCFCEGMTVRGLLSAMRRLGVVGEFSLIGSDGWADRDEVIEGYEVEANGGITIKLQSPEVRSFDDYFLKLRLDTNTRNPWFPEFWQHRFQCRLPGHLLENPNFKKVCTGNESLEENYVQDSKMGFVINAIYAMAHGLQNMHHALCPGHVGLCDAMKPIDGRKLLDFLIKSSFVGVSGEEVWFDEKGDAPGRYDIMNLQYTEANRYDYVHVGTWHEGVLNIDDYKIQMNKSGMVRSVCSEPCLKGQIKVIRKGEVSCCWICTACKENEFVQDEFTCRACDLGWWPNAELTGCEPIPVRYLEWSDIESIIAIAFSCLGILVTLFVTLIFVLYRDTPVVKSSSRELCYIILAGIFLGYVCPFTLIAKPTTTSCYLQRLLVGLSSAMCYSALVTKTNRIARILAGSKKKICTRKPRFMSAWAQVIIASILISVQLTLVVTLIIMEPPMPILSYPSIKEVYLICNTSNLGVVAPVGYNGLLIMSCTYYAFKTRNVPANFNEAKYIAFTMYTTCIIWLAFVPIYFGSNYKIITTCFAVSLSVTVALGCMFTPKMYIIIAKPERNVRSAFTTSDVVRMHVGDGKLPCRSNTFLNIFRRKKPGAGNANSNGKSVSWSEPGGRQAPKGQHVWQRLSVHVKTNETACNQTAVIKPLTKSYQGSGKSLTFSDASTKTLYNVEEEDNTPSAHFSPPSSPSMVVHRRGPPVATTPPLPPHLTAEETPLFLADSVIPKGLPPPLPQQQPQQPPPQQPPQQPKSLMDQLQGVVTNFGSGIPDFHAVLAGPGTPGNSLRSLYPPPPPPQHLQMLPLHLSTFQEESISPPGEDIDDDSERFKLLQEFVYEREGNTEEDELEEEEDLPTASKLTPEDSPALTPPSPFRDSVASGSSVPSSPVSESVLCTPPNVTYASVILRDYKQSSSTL
For test [2], the target named is Metabotropic glutamate receptor 1 (Rattus norvegicus) (UniProt P23385). Kind of test: Negative allosteric modulation of rat mGluR1 expressed in HEK293 cells assessed as calcium mobilization at 30 uM by calcium mobilization assay relative to 100 uM glutamate. On the technique in general: Calcium assays in cells follow changes in intracellular calcium, usually with a dye or a luminescent sensor.
Sequence of Metabotropic glutamate receptor 1 (Rattus norvegicus) (P23385 19-1199 limits assumed): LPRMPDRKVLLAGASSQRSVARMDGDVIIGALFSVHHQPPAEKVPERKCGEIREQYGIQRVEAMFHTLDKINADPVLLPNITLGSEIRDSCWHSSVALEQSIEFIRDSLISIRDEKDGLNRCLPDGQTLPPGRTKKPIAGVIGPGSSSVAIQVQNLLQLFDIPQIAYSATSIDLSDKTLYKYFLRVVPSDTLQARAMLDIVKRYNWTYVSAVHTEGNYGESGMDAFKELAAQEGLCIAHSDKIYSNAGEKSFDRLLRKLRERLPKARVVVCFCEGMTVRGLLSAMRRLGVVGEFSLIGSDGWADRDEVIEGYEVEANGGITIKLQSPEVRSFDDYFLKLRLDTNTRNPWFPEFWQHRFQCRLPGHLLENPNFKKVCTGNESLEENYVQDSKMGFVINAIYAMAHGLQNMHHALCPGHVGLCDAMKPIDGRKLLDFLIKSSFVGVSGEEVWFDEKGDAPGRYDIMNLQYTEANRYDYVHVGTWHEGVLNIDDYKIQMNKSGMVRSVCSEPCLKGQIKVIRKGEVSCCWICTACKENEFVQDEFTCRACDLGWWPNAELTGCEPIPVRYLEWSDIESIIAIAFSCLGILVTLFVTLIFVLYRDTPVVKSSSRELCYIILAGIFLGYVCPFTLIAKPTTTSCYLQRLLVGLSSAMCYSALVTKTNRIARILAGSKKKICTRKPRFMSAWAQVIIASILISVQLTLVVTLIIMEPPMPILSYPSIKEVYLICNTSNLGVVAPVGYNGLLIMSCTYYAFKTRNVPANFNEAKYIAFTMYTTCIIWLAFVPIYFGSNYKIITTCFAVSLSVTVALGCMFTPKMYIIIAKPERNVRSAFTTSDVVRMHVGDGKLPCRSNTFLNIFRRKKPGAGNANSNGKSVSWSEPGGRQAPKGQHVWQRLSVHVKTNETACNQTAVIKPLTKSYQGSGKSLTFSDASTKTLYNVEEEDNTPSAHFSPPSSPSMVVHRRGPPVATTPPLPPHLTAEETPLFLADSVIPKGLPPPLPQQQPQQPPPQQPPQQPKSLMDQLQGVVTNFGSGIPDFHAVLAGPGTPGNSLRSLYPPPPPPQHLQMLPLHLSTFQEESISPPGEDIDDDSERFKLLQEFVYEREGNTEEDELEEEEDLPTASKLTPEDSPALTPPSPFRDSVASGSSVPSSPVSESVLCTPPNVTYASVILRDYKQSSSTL

The target of test [3] is Metabotropic glutamate receptor 5 (Rattus norvegicus) (UniProt P31424). The test can be described thus: Negative allosteric modulation of rat mGluR5 expressed in HEK293 cells assessed as calcium mobilization at 30 uM by calcium mobilization assay relative to 100 uM glutamate.
Sequence of Metabotropic glutamate receptor 5 (Rattus norvegicus) (P31424 21-1203 limits assumed): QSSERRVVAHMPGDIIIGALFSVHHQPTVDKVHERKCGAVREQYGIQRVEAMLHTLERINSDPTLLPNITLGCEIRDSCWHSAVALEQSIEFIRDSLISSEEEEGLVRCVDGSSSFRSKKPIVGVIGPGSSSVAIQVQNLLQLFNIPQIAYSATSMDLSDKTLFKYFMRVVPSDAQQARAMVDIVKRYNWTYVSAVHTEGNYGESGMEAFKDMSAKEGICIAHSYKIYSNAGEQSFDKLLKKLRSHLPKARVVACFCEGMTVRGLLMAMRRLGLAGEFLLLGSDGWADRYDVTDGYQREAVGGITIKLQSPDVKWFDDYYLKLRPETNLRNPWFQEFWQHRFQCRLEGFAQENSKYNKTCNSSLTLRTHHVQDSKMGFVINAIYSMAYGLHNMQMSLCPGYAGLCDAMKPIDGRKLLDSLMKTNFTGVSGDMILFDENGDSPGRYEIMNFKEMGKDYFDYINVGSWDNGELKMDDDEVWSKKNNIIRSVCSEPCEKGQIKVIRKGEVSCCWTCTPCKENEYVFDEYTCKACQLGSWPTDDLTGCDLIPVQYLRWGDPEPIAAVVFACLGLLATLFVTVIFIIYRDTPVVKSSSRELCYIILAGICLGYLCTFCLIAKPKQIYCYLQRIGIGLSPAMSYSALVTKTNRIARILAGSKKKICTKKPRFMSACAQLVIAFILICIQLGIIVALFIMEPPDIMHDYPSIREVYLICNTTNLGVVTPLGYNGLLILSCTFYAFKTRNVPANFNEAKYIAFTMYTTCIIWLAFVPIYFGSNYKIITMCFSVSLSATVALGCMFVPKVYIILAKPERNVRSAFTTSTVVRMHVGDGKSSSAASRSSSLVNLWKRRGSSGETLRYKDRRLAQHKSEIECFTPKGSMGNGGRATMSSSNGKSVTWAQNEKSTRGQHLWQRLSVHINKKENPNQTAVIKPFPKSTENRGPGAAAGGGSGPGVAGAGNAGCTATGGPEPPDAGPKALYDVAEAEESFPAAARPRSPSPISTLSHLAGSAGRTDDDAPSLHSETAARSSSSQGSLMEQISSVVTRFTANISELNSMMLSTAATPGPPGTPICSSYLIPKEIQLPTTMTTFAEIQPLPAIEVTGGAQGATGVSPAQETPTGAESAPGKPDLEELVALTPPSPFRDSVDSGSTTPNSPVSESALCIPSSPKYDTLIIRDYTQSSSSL
Test [4] has as its target Metabotropic glutamate receptor 5 (Rattus norvegicus, UniProt P31424). The test can be described thus: Negative allosteric modulation of rat mGluR5 expressed in HEK293 cells assessed as inhibition of glutamate induced calcium mobilization by calcium mobilization assay.
The target in test [5] is Metabotropic glutamate receptor 5 (Homo sapiens, UniProt P41594). Kind of test: Negative allosteric modulation activity at recombinant human mGluR5a expressed in CHO cells assessed as inhibition of L-glutamate-induced intracellular Ca2+ mobilization.
Test [6] addresses Metabotropic glutamate receptor 1 (Homo sapiens, UniProt Q13255). Kind of test: Negative allosteric modulation activity at recombinant human mGluR1a expressed in CHO cells assessed as inhibition of L-glutamate-induced intracellular Ca2+ mobilization.

Sequence of Metabotropic glutamate receptor 5 (Rattus norvegicus, UniProt P31424) (P31424 whole entry): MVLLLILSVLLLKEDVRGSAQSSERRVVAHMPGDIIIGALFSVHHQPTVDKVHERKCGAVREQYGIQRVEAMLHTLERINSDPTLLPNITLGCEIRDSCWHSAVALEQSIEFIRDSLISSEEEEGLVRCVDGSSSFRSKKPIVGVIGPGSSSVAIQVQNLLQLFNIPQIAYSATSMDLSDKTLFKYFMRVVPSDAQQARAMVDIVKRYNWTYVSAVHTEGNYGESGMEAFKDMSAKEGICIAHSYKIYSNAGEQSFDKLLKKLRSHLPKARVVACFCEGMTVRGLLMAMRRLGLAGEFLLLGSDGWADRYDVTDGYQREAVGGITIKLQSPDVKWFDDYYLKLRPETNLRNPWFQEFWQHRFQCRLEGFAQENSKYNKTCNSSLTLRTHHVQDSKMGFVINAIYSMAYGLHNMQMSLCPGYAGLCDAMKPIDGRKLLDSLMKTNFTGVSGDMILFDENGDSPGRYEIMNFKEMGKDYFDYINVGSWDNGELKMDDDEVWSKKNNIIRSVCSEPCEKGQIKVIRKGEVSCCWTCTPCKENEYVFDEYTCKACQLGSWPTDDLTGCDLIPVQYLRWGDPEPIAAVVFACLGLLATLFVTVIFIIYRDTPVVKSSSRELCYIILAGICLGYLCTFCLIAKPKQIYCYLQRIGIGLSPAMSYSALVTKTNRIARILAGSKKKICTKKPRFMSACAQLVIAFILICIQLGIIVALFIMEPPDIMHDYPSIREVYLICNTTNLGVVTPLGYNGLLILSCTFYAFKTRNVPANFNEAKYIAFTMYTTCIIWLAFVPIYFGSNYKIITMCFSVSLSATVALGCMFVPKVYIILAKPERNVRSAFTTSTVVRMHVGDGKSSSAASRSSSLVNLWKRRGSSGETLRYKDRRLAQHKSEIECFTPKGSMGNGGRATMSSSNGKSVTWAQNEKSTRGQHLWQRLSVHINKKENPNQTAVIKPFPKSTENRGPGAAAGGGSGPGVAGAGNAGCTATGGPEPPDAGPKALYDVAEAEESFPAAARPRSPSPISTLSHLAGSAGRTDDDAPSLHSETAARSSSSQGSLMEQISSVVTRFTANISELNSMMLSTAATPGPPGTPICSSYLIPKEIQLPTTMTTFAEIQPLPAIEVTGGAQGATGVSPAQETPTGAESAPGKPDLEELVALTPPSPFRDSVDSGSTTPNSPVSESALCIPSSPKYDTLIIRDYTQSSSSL

`Cc1nc(N[C@@H]2C[C@@H]3C[C@H]([C@H]2C)C3(C)C)c2nn3ccccc3c2n1`: the IC50 in test [1] was 0.759 µM. Further, the %max in test [2] was 2.4%.

On to `CC(C)(C)CCNc1ncnc2c1nn1ccccc21`, for which the %max in test [3] came out at 1.3%; in test [2] it was 1.5%. Moreover, the IC50 turned out to be 0.341 µM in test [1] and 3.6 µM in test [4] (read-out: IC50).

`OC12CC3CC(C1)CC(Nc1ncnc4c1nn1ccccc41)(C3)C2`: the IC50 was 0.484 µM in test [1], over 30 µM in test [4] (read-out: IC50) and over 31.6 µM in test [4] (read-out: pIC50 (converted)). The %max in test [2] was 2.4%.

Take `COCCNc1nc(N[C@H]2CC[C@H](C)CC2)c2nn3ccccc3c2n1`: the IC50 was over 30 µM in test [1], over 30 µM in test [4] (read-out: IC50) and over 31.6 µM in test [4] (read-out: pIC50 (converted)).

Regarding `CN(C)c1nc(N[C@H]2CC[C@H](C)CC2)c2nn3ccccc3c2n1`, the IC50 was over 30 µM in test [1], over 30 µM in test [4] (read-out: IC50) and over 31.6 µM in test [4] (read-out: pIC50 (converted)).

Regarding `CC1(C)[C@@H]2CC[C@]1(C)[C@@H](Nc1ncnc3c1nn1ccccc31)C2`, the IC50 was over 30 µM in test [4] (read-out: IC50) and over 31.6 µM in test [4] (read-out: pIC50 (converted)). For the same compound, the %max in test [2] was found to be 7.1%.

`c1ccn2nc3c(NC4C5CC6CC(C5)CC4C6)ncnc3c2c1` (configuration not stated): the %max was found to be 3.4% in test [3] and 2.9% in test [2]. Besides, the IC50 in test [1] came out at 0.084 µM; in test [4] (read-out: IC50), 1.75 µM.

`C[C@H](Nc1ncnc2c1nn1ccccc21)C1CC1`: the results for the IC50 in test [1], in test [4] (read-out: IC50) and in test [4] (read-out: pIC50 (converted)) were over 30 µM, over 30 µM and over 31.6 µM, respectively.

Consider `c1ccn2nc3c(NC4CCCCCCC4)ncnc3c2c1`, for which the %max in test [3] is 1.3%; in test [2], 1.9%. Moreover, the figures for the IC50 in test [1] and in test [4] (read-out: IC50) were 0.094 µM and 3.29 µM, respectively.

As for `CC(C)Nc1nc(N[C@H]2CC[C@H](C)CC2)c2nn3ccccc3c2n1`, the IC50 in test [1] is over 30 µM; in test [4] (read-out: IC50), over 30 µM; in test [4] (read-out: pIC50 (converted)), over 31.6 µM.

`C[C@H]1CC[C@H](Nc2nc(N)nc3c2nn2ccccc32)CC1`: the figures for the IC50 in test [1], in test [4] (read-out: IC50) and in test [4] (read-out: pIC50 (converted)) were 5.6 µM, over 30 µM and over 31.6 µM, respectively. Besides, the %max in test [2] came to 0.58%.

For `c1ccn2nc3c(N[C@H]4C[C@@H]5CC[C@H]4C5)ncnc3c2c1`, the %max in test [3] came to 9.9%; in test [2], 2.5%. The IC50 in test [1] was 0.232 µM; in test [4] (hek293, read-out: IC50), over 10 µM; in test [4] (read-out: pIC50 (converted)), over 10 µM.

Consider `Cc1nc(N[C@H]2C[C@H]3CC[C@@]2(C)C3(C)C)c2nn3ccccc3c2n1`, for which the values for the IC50 in test [4] (read-out: IC50) and in test [4] (read-out: pIC50 (converted)) were over 30 µM and over 31.6 µM, respectively. Also, the %max in test [2] turned out to be 7.1%.

Turning to `c1ccn2nc3c(NC45CC6CC(CC(C6)C4)C5)ncnc3c2c1`, the %max in test [3] worked out at 4.8%; in test [2], 2.6%. Also, the IC50 in test [1] turned out to be 0.148 µM; in test [4] (read-out: IC50), 2.36 µM.

As to `c1ccn2nc3c(NC4CCCCC4)ncnc3c2c1`, the IC50 in test [4] (read-out: IC50) was over 30 µM; in test [4] (read-out: pIC50 (converted)), over 31.6 µM. In test [2], the %max was -0.5%.

For the compound `Cc1nc(N[C@H]2CC[C@H](C)CC2)c2nn3ccccc3c2n1`, the figures for the IC50 in test [4] (read-out: IC50) and in test [4] (read-out: pIC50 (converted)) were over 30 µM and over 31.6 µM, respectively. The %max in test [2] came to 2.6%.

In the case of `C[C@H](Nc1ncnc2c1nn1ccccc21)C(C)(C)C`, the IC50 in test [4] (read-out: IC50) is over 30 µM; in test [4] (read-out: pIC50 (converted)), over 31.6 µM. Moreover, the %max in test [2] is -0.2%.

`c1ccc2c(c1)CC(Nc1ncnc3c1nn1ccccc31)C2`: the %max in test [3] was determined as 17.2%; in test [2], 2.1%. Further, in test [1], the IC50 amounted to 0.247 µM.

Consider `C[C@H](Nc1ncnc2c1nn1ccccc21)C1CCCCC1`, for which the %max in test [3] turned out to be 61.8%; in test [2], 0.9%. In test [4] (hek293), the negative-log IC50 (pIC50) is under 5. In addition, in test [4] (read-out: IC50), the IC50 was over 10 µM.

As to `CCC(C)(C)Nc1ncnc2c1nn1ccccc21`, the IC50 was over 10 µM in test [1], over 30 µM in test [4] (read-out: IC50) and over 31.6 µM in test [4] (read-out: pIC50 (converted)). Also, the %max in test [2] was 12.6%.

Turning to `C[C@@H]1[C@H]2C[C@@H](C[C@H]1Nc1ncnc3c1nn1ccccc31)C2(C)C`, the results for the %max in test [3] and in test [2] were 9% and 2.7%, respectively. Besides, the IC50 in test [1] is 0.152 µM; in test [4] (hek293, read-out: IC50), over 10 µM; in test [4] (read-out: pIC50 (converted)), over 10 µM.

Consider `C[C@@H](Nc1ncnc2c1nn1ccccc21)C1CCCCC1`, for which the %max was 18.4% in test [3] and 2.4% in test [2]. For the same compound, the pIC50 in test [4] (hek293) is listed as under 5. Also, in test [4] (read-out: IC50), the IC50 was over 10 µM.

For the compound `c1ccn2nc3c(NC4CCCCCC4)ncnc3c2c1`, the results for the %max in test [3] and in test [2] were 20% and 2%, respectively. The IC50 in test [1] was 0.225 µM; in test [4] (hek293, read-out: IC50), over 10 µM; in test [4] (read-out: pIC50 (converted)) it was over 10 µM.

`C[C@H]1CC[C@H](Nc2ncnc3c2nn2ccccc32)CC1`: the %max in test [3] and in test [2] was 2% each time. Further, the IC50 was 0.093 µM in test [1] and 2.27 µM in test [4] (read-out: IC50).

Consider `C[C@@H]1[C@@H](Nc2ncnc3c2nn2ccccc32)C[C@H]2C[C@@H]1C2(C)C`, for which the %max in test [3] amounted to 2.3%; in test [2], 3.1%. Besides, the results for the IC50 in test [1] and in test [4] (read-out: IC50) were 0.233 µM and 2.09 µM, respectively.

With `C[C@@H](Nc1ncnc2c1nn1ccccc21)C(C)(C)C`, the IC50 in test [4] (read-out: IC50) is over 30 µM; in test [4] (read-out: pIC50 (converted)), over 31.6 µM. Moreover, in test [2], the %max was 2.2%.

With `FC1(F)CCC(Nc2ncnc3c2nn2ccccc32)CC1`, the IC50 in test [1] was over 10 µM; in test [4] (read-out: IC50), over 30 µM; in test [4] (read-out: pIC50 (converted)), over 31.6 µM. For the same compound, the %max in test [2] is 39%.

`C[C@@H](Nc1ncnc2c1nn1ccccc21)C1CC1`: the values for the IC50 in test [1], in test [4] (read-out: IC50) and in test [4] (read-out: pIC50 (converted)) were over 10 µM, over 30 µM and over 31.6 µM, respectively. For the same compound, the %max in test [2] is 71.6%.

`CNc1nc(N[C@H]2CC[C@H](C)CC2)c2nn3ccccc3c2n1`: the IC50 was over 30 µM in test [1], over 30 µM in test [4] (read-out: IC50) and over 31.6 µM in test [4] (read-out: pIC50 (converted)).

For `OCCSc1nc2c(c(NC3Cc4ccccc4C3)n1)CCCC2`, the IC50 in test [5] is over 9.1 µM; in test [6], 0.028 µM.
